According to ChEMBL document CHEMBL1137369, “New orally active derivatives of artemisinin with high efficacy against multidrug-resistant malaria in mice” (J Med Chem, 2006):

How the values were obtained:
[1] = test system: Plasmodium yoelii nigeriensis; assay: Antimalarial activity as cures against multidrug-resistant Plasmodium yoelii nigeriensis infected Swiss mice (Mus musculus) at 48 mg/kg peroral dose over 4 days; format: functional; settings: route oral
[2] = Lipophilicity, Log P of the compound; format: physicochemical; settings: octanol/water
[3] = test system: Plasmodium yoelii nigeriensis; assay: Antimalarial activity against multidrug-resistant Plasmodium yoelii nigeriensis infected Swiss mice (Mus musculus) at 48 mg/kg peroral dose over 4 days; format: functional; settings: route oral
[4] = Protection of Swiss mice (Mus musculus) infected with Plasmodium yoelii nigeriensis at 48 mg/kg, perorally for 4 days; format: functional; settings: route oral
[5] = test system: Plasmodium yoelii nigeriensis; assay: Antimalarial activity against multidrug-resistant Plasmodium yoelii nigeriensis infected Swiss mice (Mus musculus) at 12 mg/kg peroral dose over 4 days; format: functional; settings: route oral
[6] = test system: Plasmodium yoelii nigeriensis; assay: Antimalarial activity against multidrug-resistant Plasmodium yoelii nigeriensis infected Swiss mice (Mus musculus) at 6 mg/kg peroral dose over 4 days; format: functional; settings: route oral

| Structure (SMILES) | Activity [1] [%] | logP [2] | Activity [3] [%] | Activity [4] [%] | Activity [5] [%] | Activity [6] [%] |
| --- | --- | --- | --- | --- | --- | --- |
| C[C@H]1[C@@H](OCCC23CC4CC(CC(C4)C2)C3)O[C@@H]2O[C@@]3(C)CC[C@H]4[C@H](C)CC[C@@H]1[C@@]24OO3 | 100 | 6.29 | 100 | 60 | – | – |
| C[C@@H]1CC[C@H]2[C@@H](C)C(OC3C4CC5CC(C4)CC3C5)O[C@@H]3O[C@@]4(C)CC[C@@H]1[C@]32OO4 (stereo not given in full) | 100 | 5.51 | 100 | 100 | 100 | – |
| C[C@H]1[C@H](OCCOc2ccc(-c3ccccc3)cc2)O[C@@H]2C[C@@]3(C)CC[C@H]4[C@H](C)CC[C@@H]1[C@@]24OO3 | 100 | 6.85 | 100 | – | 100 | 44.33 |
| CCO[C@H]1O[C@@H]2O[C@@]3(C)CC[C@H]4[C@H](C)CC[C@@H]([C@H]1C)[C@@]24OO3 [ARTEMOTIL] | 100 | 3.84 | 100 | – | – | – |
| C[C@H]1[C@H](OCCC2C3CC4CC(C3)CC2C4)O[C@@H]2O[C@@]3(C)CC[C@H]4[C@H](C)CC[C@@H]1[C@@]24OO3 (stereo not given in full) | 100 | 6.15 | 100 | – | 100 | – |
| C[C@H]1[C@H](OCc2ccc(-c3ccccc3)cc2)O[C@@H]2O[C@@]3(C)CC[C@H]4[C@H](C)CC[C@@H]1[C@@]24OO3 | 100 | 6.91 | 100 | – | 100 | 86.33 |
| CCO[C@@H]1O[C@@H]2O[C@]3(C)CC[C@H]4[C@H](C)CC[C@@H]([C@H]1C)[C@@]24OO3 [ALPHA-ARTEETHER] | 100 | 3.84 | 100 | – | – | – |
| C[C@H]1[C@@H](OCc2ccccc2-c2ccccc2)O[C@@H]2O[C@@]3(C)CC[C@H]4[C@H](C)CC[C@@H]1[C@@]24OO3 | 100 | 6.91 | 100 | 100 | 100 | – |
| C[C@H]1[C@@H](OCCC2C3CC4CC(C3)CC2C4)O[C@@H]2O[C@@]3(C)CC[C@H]4[C@H](C)CC[C@@H]1[C@@]24OO3 (stereo not given in full) | 100 | 6.15 | 100 | 100 | – | – |
| C[C@H]1[C@@H](OCCc2ccc(-c3ccccc3)cc2)O[C@@H]2O[C@@]3(C)CC[C@H]4[C@H](C)CC[C@@H]1[C@@]24OO3 | 100 | 7.19 | 100 | 100 | 100 | – |
| C[C@H]1[C@H](OCCC23CC4CC(CC(C4)C2)C3)O[C@@H]2O[C@@]3(C)CC[C@H]4[C@H](C)CC[C@@H]1[C@@]24OO3 | 100 | 6.29 | 100 | – | 97.43 | 61.25 |
| C[C@H]1[C@@H](OCCOc2ccc(-c3ccccc3)cc2)O[C@@H]2C[C@@]3(C)CC[C@H]4[C@H](C)CC[C@@H]1[C@@]24OO3 | 100 | 6.85 | 100 | 100 | 100 | – |
| C[C@@H]1CC[C@H]2[C@@H](C)C(OCC34CC5CC(CC(C5)C3)C4)O[C@@H]3O[C@@]4(C)CC[C@@H]1[C@]32OO4 (stereo not given in full) | 100 | 6.02 | 100 | 100 | 100 | – |
| C[C@H]1[C@@H](OCc2ccc(-c3ccccc3)cc2)O[C@@H]2O[C@@]3(C)CC[C@H]4[C@H](C)CC[C@@H]1[C@@]24OO3 | 100 | 6.91 | 100 | 100 | 100 | – |
| C[C@H]1[C@H](OCC2c3ccccc3-c3ccccc32)O[C@@H]2C[C@@]3(C)CC[C@H]4[C@H](C)CC[C@@H]1[C@@]24OO3 | 100 | 6.75 | 100 | – | 100 | – |
| C[C@@H]1CC[C@H]2[C@@H](C)C(OCCC3c4ccccc4-c4ccccc43)O[C@@H]3C[C@@]4(C)CC[C@@H]1[C@]32OO4 (stereo not given in full) | 100 | 7.1 | 100 | 100 | 100 | – |
| C[C@H]1[C@@H](OCC2c3ccccc3-c3ccccc32)O[C@@H]2C[C@@]3(C)CC[C@H]4[C@H](C)CC[C@@H]1[C@@]24OO3 | 100 | 6.75 | 100 | – | 100 | 92.95 |
| C[C@H]1[C@@H](OCCOc2ccccc2-c2ccccc2)O[C@@H]2C[C@@]3(C)CC[C@H]4[C@H](C)CC[C@@H]1[C@@]24OO3 | 100 | 6.85 | 100 | – | – | – |
| C[C@H]1[C@H](OCCOc2ccccc2-c2ccccc2)O[C@@H]2C[C@@]3(C)CC[C@H]4[C@H](C)CC[C@@H]1[C@@]24OO3 | 100 | 6.85 | 100 | – | 100 | 64.44 |
